The results in this text go back to US20240360157A1, “TYK2 INHIBITORS” (BIOGEN MA INC., priority 2021, published 2024).

As a reminder, the IC50 is the concentration that inhibits the measured activity by half.

Holding throughout (format): biochemical
In assay [1] the target is human JAK3 catalytic kinase (JH1) domain (Homo sapiens (Human), UniProt P52333). The assay can be described thus: ADP-Glo Kinase Assay, recombinant JAK3 catalytic kinase (JH1) domain. The note with it: recombinant JH1 domain 0.3 nM, 4 μM ATP, JAK3-974 peptide, mean, read-out: JAK3 biochem IC50 (nM) Mean. As to the method: (§1) Compounds of the disclosure were assessed for their ability to inhibit TYK2, JAK1, JAK2, and JAK3 activity. The inhibitory properties of the compounds of the disclosure described herein can be evidenced by testing in any one of the following protocols.
human JAK3 catalytic kinase (JH1) domain, sequence (P52333 822-1111): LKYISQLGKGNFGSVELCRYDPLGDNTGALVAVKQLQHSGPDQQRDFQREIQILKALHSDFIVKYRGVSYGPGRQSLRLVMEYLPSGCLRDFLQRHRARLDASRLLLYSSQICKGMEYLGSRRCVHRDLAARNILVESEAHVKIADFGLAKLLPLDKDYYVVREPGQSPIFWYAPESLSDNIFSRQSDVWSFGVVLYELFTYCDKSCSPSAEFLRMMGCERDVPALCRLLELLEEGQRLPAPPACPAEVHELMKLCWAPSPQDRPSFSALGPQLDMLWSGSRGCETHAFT
(§2) The kinase activity of recombinantly generated catalytic kinase (also known as JH1) domain of human JAK1, JAK2, JAK3 and TYK2 were evaluated in a plate-based assay using the ADP-Glo™ Kinase Assay platform. Specifically, 4 nM of recombinant JAK1 kinase domain is used to phosphorylate 50 μM of a JAK3-342 (sequence ALVDGYFRLTT) peptide in the presence of 35 μM ATP. Catalytic activities of recombinant JAK2, JAK3 and TYK2 kinase domain (0.2, 0.3 and 2 nM, respectively) are evaluated by the phosphorylation status of the JAK3-974 (50 μM; sequence LPLDKDYYVVR) peptide with the addition of ATP (15, 4 and 10 μM, respectively). The reactions proceed for 100 minutes and the catalytic activity is quantified by first depleting the unused ATP, converting the hydrolyzed ADP into ATP to generate luminescence in a luciferase reaction; which is the basis of the ADP-Glo platform. Compounds are tested at either 10 μM or 1 μM top concentration, 11 points of 3-fold dilution. The data is normalized and the percent activity versus log concentration of compound is fitted with a 4-parameter logistic model to generate a curve and an IC50 value.
(ADP-Glo first removes unused ATP, then detects ADP through luciferase.)

In assay [2] the target is human JAK1 catalytic kinase (JH1) domain (Homo sapiens (Human), UniProt P23458). Description: ADP-Glo Kinase Assay, recombinant JAK1 catalytic kinase (JH1) domain. The note with it: recombinant JH1 domain 4 nM, 35 μM ATP, JAK3-342 peptide, mean, read-out: JAK1 biochem IC50 (nM) Mean. As to the method: as §1, §2
human JAK1 catalytic kinase (JH1) domain, sequence (P23458 875-1153): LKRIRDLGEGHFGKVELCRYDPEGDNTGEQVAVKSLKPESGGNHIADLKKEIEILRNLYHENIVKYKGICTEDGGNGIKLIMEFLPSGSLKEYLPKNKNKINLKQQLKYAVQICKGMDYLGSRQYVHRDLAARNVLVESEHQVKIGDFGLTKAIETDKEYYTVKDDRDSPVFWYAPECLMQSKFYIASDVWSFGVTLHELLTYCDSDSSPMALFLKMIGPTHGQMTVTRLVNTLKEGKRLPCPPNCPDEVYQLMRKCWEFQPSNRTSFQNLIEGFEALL
Assay [3] addresses human JAK2 catalytic kinase (JH1) domain (Homo sapiens (Human), UniProt O60674). The assay can be described thus: ADP-Glo Kinase Assay, recombinant JAK2 catalytic kinase (JH1) domain. The note with it: recombinant JH1 domain 0.2 nM, 15 μM ATP, JAK3-974 peptide, mean, read-out: JAK2 biochem IC50 (nM) Mean. On the procedure:
as §1, §2

The target in assay [4] is human TYK2 catalytic kinase (JH1) domain (Homo sapiens (Human), UniProt P29597). The assay can be described thus: ADP-Glo Kinase Assay, recombinant TYK2 catalytic kinase (JH1) domain. The note with it: recombinant JH1 domain 2 nM, 10 μM ATP, JAK3-974 peptide, mean, read-out: TYK2 biochem IC50 (nM) Mean. As to the method:
as §1, §2

Counter-ions that a name gives are not always drawn.

human JAK2 catalytic kinase (JH1) domain, sequence (O60674 849-1124): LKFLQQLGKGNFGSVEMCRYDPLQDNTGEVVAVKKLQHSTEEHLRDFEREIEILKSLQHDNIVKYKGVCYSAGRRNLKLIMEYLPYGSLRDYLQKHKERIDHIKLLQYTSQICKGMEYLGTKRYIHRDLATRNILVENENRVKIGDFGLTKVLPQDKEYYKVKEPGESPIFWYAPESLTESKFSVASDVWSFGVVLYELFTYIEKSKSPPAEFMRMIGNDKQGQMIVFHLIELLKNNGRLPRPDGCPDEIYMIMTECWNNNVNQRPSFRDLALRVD
human TYK2 catalytic kinase (JH1) domain, sequence (P29597 897-1176): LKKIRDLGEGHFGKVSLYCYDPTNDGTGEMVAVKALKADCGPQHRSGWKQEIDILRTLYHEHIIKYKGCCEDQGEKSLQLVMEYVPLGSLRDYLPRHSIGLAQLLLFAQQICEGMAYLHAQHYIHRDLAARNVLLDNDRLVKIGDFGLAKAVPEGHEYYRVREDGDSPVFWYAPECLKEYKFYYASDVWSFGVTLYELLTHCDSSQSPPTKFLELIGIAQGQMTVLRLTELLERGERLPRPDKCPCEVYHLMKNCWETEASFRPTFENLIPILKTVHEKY

Regarding `Cn1cc(-c2cc3c(N4CC5CCC(C4)N5C(=O)CC#N)ncnn3c2)cn1` [Example 62, 3-(3-(6-(1-methyl-1H-pyrazol-4-yl)pyrrolo[2,1-f][1,2,4]triazin-4-yl)-3,8-diazabicyclo[3.2.1]octan-8-yl)-3-oxopropanenitrile], the IC50 was 6830 nM in assay [1], 860 nM in assay [2], 8710 nM in assay [3] and 351 nM in assay [4].

`COc1ccc(-c2cc3c(N4CC5CCC(C4)N5C(=O)[C@@H]4C[C@H]4F)ccnn3c2)cn1` [Example 114, ((1S,2R)-2-fluorocyclopropyl)(3-(6-(6-methoxypyridin-3-yl)pyrrolo[1,2-b]pyridazin-4-yl)-3,8-diazabicyclo[3.2.1]octan-8-yl)methanone]: the IC50 is 684 nM in assay [1], 54 nM in assay [2], 47 nM in assay [3] and 3.8 nM in assay [4].

For the compound `Cc1ccc(-c2nc3c(N4CC5CCC(C4)N5C(=O)[C@@H]4C[C@H]4F)ccnc3[nH]2)cn1` [Example 205, ((1S,2R)-2-fluorocyclopropyl)(3-(2-(6-methylpyridin-3-yl)-3H-imidazo[4,5-b]pyridin-7-yl)-3,8-diazabicyclo[3.2.1]octan-8-yl)methanone], the IC50 was determined as 246 nM in assay [1], 25 nM in assay [2], 22 nM in assay [3] and 4.6 nM in assay [4].

For `O=C([C@@H]1C[C@H]1F)N1C2CCC1CN(c1ccnn3cc(-c4ccc(OC(F)F)nc4)cc13)C2` [Example 115, (3-(6-(6-(difluoromethoxy)pyridin-3-yl)pyrrolo[1,2-b]pyridazin-4-yl)-3,8-diazabicyclo[3.2.1]octan-8-yl)((1S,2R)-2-fluorocyclopropyl)methanone], the IC50 stood at 961 nM in assay [1], 105 nM in assay [2], 82 nM in assay [3] and 6 nM in assay [4].

Take `O=C(C1CC1)N1C2CCC1CN(c1ccnc3[nH]c(-c4cnn(C(F)F)c4)cc13)C2` [Example 237, cyclopropyl(3-(2-(1-(difluoromethyl)-1H-pyrazol-4-yl)-1H-pyrrolo[2,3-b]pyridin-4-yl)-3,8-diazabicyclo[3.2.1]octan-8-yl)methanone]: the IC50 was 183 nM in assay [1], 50 nM in assay [2], 39 nM in assay [3] and 1.1 nM in assay [4].

As to `Cc1cc(-c2nc3c(N4CC5CCC(C4)N5C(=O)[C@@H]4C[C@H]4F)ccnc3[nH]2)ccn1` [Example 202, ((1S,2R)-2-fluorocyclopropyl)(3-(2-(2-methylpyridin-4-yl)-3H-imidazo[4,5-b]pyridin-7-yl)-3,8-diazabicyclo[3.2.1]octan-8-yl)methanone], the IC50 came to 199 nM in assay [1], 5 nM in assay [2], 14 nM in assay [3] and 2.5 nM in assay [4].

Regarding `Cn1cc(-c2cc3c(N4CC5CCC(C4)N5C(=O)C4CC4)ncnn3c2)c(F)n1` [Example 145], the IC50 stood at 6520 nM in assay [1], 2360 nM in assay [2], 6020 nM in assay [3] and 202 nM in assay [4].

As for `O=C([C@@H]1C[C@H]1F)N1C2CCC1CN(c1ncnn3cc(-c4ccc(=O)n(C(F)F)c4)cc13)C2` [Example 110, 1-(difluoromethyl)-5-(4-(8-((1S,2R)-2-fluorocyclopropane-1-carbonyl)-3,8-diazabicyclo[3.2.1]octan-3-yl)pyrrolo[2,1-f][1,2,4]triazin-6-yl)pyridin-2(1H)-one], the IC50 in assay [1] was 3960 nM; in assay [2], 758 nM; in assay [3] it was 812 nM; in assay [4], 56.5 nM.

Regarding `Cn1cc(-c2cc3c(N4CC5CCC(C4)N5C(=O)[C@@H]4C[C@H]4F)ncnn3c2)cn1` [Example 82, ((1S,2R)-2-fluorocyclopropyl)(3-(6-(1-methyl-1H-pyrazol-4-yl)pyrrolo[2,1-f][1,2,4]triazin-4-yl)-3,8-diazabicyclo[3.2.1]octan-8-yl)methanone], the IC50 is 3060 nM in assay [1], 1650 nM in assay [2], 8860 nM in assay [3] and 400 nM in assay [4].

With `N#Cc1ccc(-c2cc3c(N4CC5CCC(C4)N5C(=O)[C@@H]4C[C@H]4F)ncnc3[nH]2)cn1` [Example 227, 5-(4-(8-((1S,2R)-2-fluorocyclopropane-1-carbonyl)-3,8-diazabicyclo[3.2.1]octan-3-yl)-7H-pyrrolo[2,3-d]pyrimidin-6-yl)picolinonitrile], the IC50 in assay [1] is 1590 nM; in assay [2], 268 nM; in assay [3], 418 nM; in assay [4] it was 31.6 nM.

As to `O=C([C@@H]1C[C@H]1F)N1C2CCC1CN(c1ncnc3[nH]c(-c4ccnc(C(F)(F)F)c4)cc13)C2` [Example 223, ((1S,2R)-2-fluorocyclopropyl)(3-(6-(2-(trifluoromethyl)pyridin-4-yl)-7H-pyrrolo[2,3-d]pyrimidin-4-yl)-3,8-diazabicyclo[3.2.1]octan-8-yl)methanone], the IC50 in assay [1] worked out at 1620 nM; in assay [2], 308 nM; in assay [3], 352 nM; in assay [4], 23.9 nM.

Take `O=C([C@@H]1C[C@H]1F)N1C2CCC1CN(c1ncnc3[nH]c(-c4cnn(C(F)F)c4)cc13)C2` [Example 221, (3-(6-(1-(difluoromethyl)-1H-pyrazol-4-yl)-7H-pyrrolo[2,3-d]pyrimidin-4-yl)-3,8-diazabicyclo[3.2.1]octan-8-yl)((1S,2R)-2-fluorocyclopropyl)methanone]: the IC50 in assay [1] was 461 nM; in assay [2], 82 nM; in assay [3], 73 nM; in assay [4] it was 2.8 nM.

With `Cn1cc(-c2cc3c(N4CC5CCC(C4)N5C(=O)[C@H]4C[C@@H]4F)ncnn3c2)cn1` (single isomer, unassigned) [Example 81], the IC50 came out at 5610 nM in assay [1], 1420 nM in assay [2], 1450 nM in assay [3] and 31.2 nM in assay [4].

For the compound `C[C@]1(F)C[C@H](C(=O)N2C3CCC2CN(c2ncnn4cc(-c5cnn(C(F)F)c5)cc24)C3)C1` [Example 34, (3-(6-(1-(difluoromethyl)-1H-pyrazol-4-yl)pyrrolo[2,1-f][1,2,4]triazin-4-yl)-3,8-diazabicyclo[3.2.1]octan-8-yl)((1r,3r)-3-fluoro-3-methylcyclobutyl)methanone trifluoroacetate], the IC50 in assay [1] came out at 9510 nM; in assay [2] it was 3190 nM; in assay [3] it was 7520 nM; in assay [4], 510 nM.

For `CC1C(C(=O)N2C3CCC2CN(c2ncnn4cc(-c5cnn(C(F)F)c5)cc24)C3)C1(F)F` (stereo not shown) [Example 5, (2,2-difluoro-3-methylcyclopropyl)(3-(6-(1-(difluoromethyl)-1H-pyrazol-4-yl)pyrrolo[2,1-f][1,2,4]triazin-4-yl)-3,8-diazabicyclo[3.2.1]octan-8-yl)methanone], the IC50 stood at 3700 nM in assay [1], 707 nM in assay [2], 3050 nM in assay [3] and 93.1 nM in assay [4].

Consider `N#CC1(C(=O)N2C3CCC2CN(c2ncnn4cc(-c5cnn(C(F)F)c5)cc24)C3)CC1` [Example 30, 1-(3-(6-(1-(difluoromethyl)-1H-pyrazol-4-yl)pyrrolo[2,1-f][1,2,4]triazin-4-yl)-3,8-diazabicyclo[3.2.1]octane-8-carbonyl)cyclopropane-1-carbonitrile trifluoroacetate], for which the IC50 in assay [1] is 820 nM; in assay [2], 191 nM; in assay [3] it was 938 nM; in assay [4] it was 90 nM.

As for `CNc1cc(-c2cc3c(N4CC5CCC(C4)N5C(=O)[C@@H]4C[C@H]4F)ccnn3c2)ccn1` [Example 99, ((1S,2R)-2-fluorocyclopropyl)(3-(6-(2-(methylamino)pyridin-4-yl)pyrrolo[1,2-b]pyridazin-4-yl)-3,8-diazabicyclo[3.2.1]octan-8-yl)methanone], the IC50 in assay [1] was found to be 211 nM; in assay [2], 10 nM; in assay [3], 18 nM; in assay [4], 0.7 nM.

In the case of `O=C(C1CC1)N1C2CCC1CN(c1ncnn3cc(-c4cnn([C@H]5CCOC5)c4)cc13)C2` [Example 157, cyclopropyl(3-(6-(1-((S)-tetrahydrofuran-3-yl)-1H-pyrazol-4-yl)pyrrolo[2,1-f][1,2,4]triazin-4-yl)-3,8-diazabicyclo[3.2.1]octan-8-yl)methanone], the IC50 in assay [1] was 2250 nM; in assay [2] it was 1380 nM; in assay [3] it was 2270 nM; in assay [4], 151 nM.

Regarding `O=C(C1CC1)N1C2CCC1CN(c1ncnn3cc(-c4ccccc4)cc13)C2` [Example 177], the IC50 in assay [1] was 4670 nM; in assay [2], 1230 nM; in assay [3], 10000 nM; in assay [4] it was 300 nM.
